From patent US9233940B2, “Cyclic peptidomimetic compounds as immunomodulators” (Aurigene Discovery Technologies Limited, priority 2014, dated 2016)

Target: T1, recombinant mouse PD-L1 (Mus musculus, UniProt Q9EP73)
T1 construct: purchased R&D Systems 1019-B7-100
Experiment: Rescue of mouse splenocyte proliferation in the presence of recombinant PD-L1 (CFSE proliferation assay)
Format: cell-based
Settings: 72 h, 100 nM compound; CFSE-labelled mouse splenocytes + anti-CD3/CD28 + PD-L1, 72 h; normalised to stimulated splenocytes as 100%; read-out: Percent rescue of splenocyte proliferation @ 100 nM compound concentration
Protocol: Rescue of Mouse Splenocyte Proliferation in the Presence of Recombinant PD-L1
Recombinant mouse PD-L1 (rm-PDL-1, cat no: 1019-B7-100; R&D Systems) were used as the source of PD-L1.
Mouse splenocytes harvested from 6-8 weeks old C57 BL6 mice; RPMI 1640 (GIBCO, Cat #11875); DMEM with high glucose (GIBCO, Cat # D6429); Fetal Bovine Serum [Hyclone, Cat # SH30071.03]; Penicillin (10000 unit/ml)-Streptomycin(10,000 μg/ml) Liquid (GIBCO, Cat #15140-122); MEM Sodium Pyruvate solution 100 mM (100×), Liquid (GIBCO, Cat #11360); Nonessential amino acid (GIBCO, Cat #11140); L-Glutamine (GIBCO, Cat #25030); Anti-CD3 antibody (eBiosciences-16-0032); Anti-CD28 antibody (eBiosciences-16-0281); ACK lysis buffer (1 mL) (GIBCO, Cat #-A10492); Histopaque (density-1.083 gm/mL) (SIGMA 10831); Trypan blue solution (SIGMA-T8154); 2 mL Norm Ject Luer Lock syringe—(Sigma 2014-12); 40 μm nylon cell strainer (BD FALCON 35230); Hemacytometer (Bright line-SIGMA Z359629); FACS Buffer (PBS/0.1% BSA): Phosphate Buffered Saline (PBS) pH 7.2 (HiMedia TS1006) with 0.1% Bovine Serum Albumin (BSA) (SIGMA A7050) and sodium azide (SIGMA 08591); 5 mM stock solution of CFSE: CFSE stock solution was prepared by diluting lyophilized CFSE with 180 μL of Dimethyl sulfoxide (DMSO C2H6SO, SIGMA-D-5879) and aliquoted in to tubes for further use. Working concentrations were titrated from 10 μm to 1 μm. (eBioscience-650850-85); 0.05% Trypsin and 0.02% EDTA (SIGMA 59417C); 96-well format ELISA plates (Corning CLS3390); BD FACS caliber (E6016); Recombinant mouse B7-H1/PDL1 Fc Chimera, (rm-PD-L1 cat no: 1019-B7-100).
Splenocytes harvested in a 50 mL falcon tube by mashing mouse spleen in a 40 μm cell strainer were further treated with 1 ml ACK lysis buffer for 5 mins at room temperature. After washing with 9 mL of RPMI complete media, cells were re-suspended in 3 ml of 1×PBS in a 15 mL tube. 3 mL of Histopaque was added carefully to the bottom of the tube without disturbing overlaying splenocyte suspension. After centrifuging at 800×g for 20 min. at room temperature, the opaque layer of splenocytes was collected carefully without disturbing/mixing the layers. Splenocytes were washed twice with cold 1×PBS followed by total cell counting using Trypan Blue exclusion method and used further for cell based assays.
Splenocytes were cultured in RPMI complete media (RPMI+10% fetal bovine serum+1 mM sodium pyruvate+10,000 units/mL penicillin and 10,000 μg/mL streptomycin) and maintained in a CO2 incubator with 5% CO2 at 37° C.
CFSE is a dye that passively diffuses into cells and binds to intracellular proteins. 1×10^6 cells/ml of harvested splenocytes were treated with 5 μm of CFSE in pre-warmed 1×PBS/0.1% BSA solution for 10 mins at 37° C. Excess CFSE was quenched using 5 volumes of ice-cold culture media to the cells and incubated on ice for 5 min. CFSE labelled splenocytes were further given three washes with ice cold complete RPMI media. CFSE labelled 1×10^5 splenocytes added to wells containing either MDA-MB231 cells (1×10^5 cells cultured in high glucose DMEM medium) or recombinant human PDL-1 (100 ng/mL) and test compounds. Splenocytes were stimulated with anti-mouse CD3 and anti-mouse CD28 antibody (1 μg/mL each), and the culture was further incubated for 72 h at 37° C. with 5% CO2. Cells were harvested and washed thrice with ice cold FACS buffer and % proliferation was analysed by flow cytometry with 488 nm excitation and 521 nm emission filters.
Percent splenocyte proliferation was analysed using cell quest FACS program and percent rescue of splenocyte proliferation by compound was estimated after deduction of % background proliferation value and normalising to % stimulated splenocyte proliferation (positive control) as 100%.
Background proliferation: Splenocytes+anti-CD3/CD28+PD-L1
Stimulated splenocytes: Splenocytes+anti-CD3/CD28 stimulation
Compound proliferation: Splenocytes+anti-CD3/CD28+PD-L1+Compound […]

T1 sequence (Q9EP73 with tags, fused parts or gaps limits assumed): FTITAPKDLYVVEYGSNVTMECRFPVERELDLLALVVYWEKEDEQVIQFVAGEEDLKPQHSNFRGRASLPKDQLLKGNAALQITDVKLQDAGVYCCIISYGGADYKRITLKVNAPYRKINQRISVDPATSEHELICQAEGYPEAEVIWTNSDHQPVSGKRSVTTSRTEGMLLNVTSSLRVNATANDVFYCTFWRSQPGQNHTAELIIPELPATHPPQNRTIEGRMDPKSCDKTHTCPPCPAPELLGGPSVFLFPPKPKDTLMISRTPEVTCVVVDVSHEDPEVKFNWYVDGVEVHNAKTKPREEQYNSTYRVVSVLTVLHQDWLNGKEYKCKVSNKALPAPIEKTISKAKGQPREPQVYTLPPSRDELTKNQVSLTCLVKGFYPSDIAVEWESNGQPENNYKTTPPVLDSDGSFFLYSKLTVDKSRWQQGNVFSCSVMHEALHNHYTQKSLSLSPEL

activity at 0.1 µM	Structure (SMILES)
95%	CC(O)[C@@H]1NC(=O)N[C@@H](CC(N)=O)C(=O)NNC(=O)[C@H](CO)NC(=O)COCCOCCNC1=O (stereo partly drawn) [Compound 1]
94%	CC(O)[C@H]1NC(=O)COCCOCCNC(=O)[C@@H](CO)NC(=O)N[C@H](CC(N)=O)C(=O)NNC1=O (stereo partly drawn) [Compound 2]
73%	NC(=O)C[C@@H]1NC(=O)N[C@H](CO)C(=O)NCCOCCOCC(=O)N[C@@H](CO)C(=O)NNC1=O [Compound 9]
89%	CC(O)[C@@H]1NC(=O)N[C@H](CC(N)=O)C(=O)NNC(=O)[C@@H](C(C)O)NC(=O)COCCOCCNC1=O (stereo partly drawn) [Compound 10]

Further lines, the compound ahead of its results:

Structure (SMILES)	activity at 0.1 µM
CC(O)[C@H]1NC(=O)COCCOCCNC(=O)[C@@H](CO)NC(=O)N[C@H](CC(N)=O)C(=O)N(C)NC1=O (stereo partly drawn) [Compound 3]	58%
CC(O)[C@H]1NC(=O)CCCCCCNC(=O)[C@@H](CO)NC(=O)N[C@H](CC(N)=O)C(=O)NNC1=O (stereo partly drawn) [Compound 4]	49%
CCC(C)[C@@H]1NC(=O)N[C@@H](CC(N)=O)C(=O)NNC(=O)[C@H](CO)NC(=O)COCCOCCNC1=O (stereo partly drawn) [Compound 5]	53%
NC(=O)C[C@@H]1NC(=O)N[C@@H](CC(=O)O)C(=O)NCCOCCOCC(=O)N[C@@H](CO)C(=O)NNC1=O [Compound 8]	68%

Same assay, conditions: CFSE-labelled mouse splenocytes + anti-CD3/CD28 + PD-L1, 72 h, normalised to stimulated splenocytes as 100%

Percent rescue of splenocyte proliferation @ 100 nM compound concentration	Structure (SMILES)
91	NC(=O)C[C@@H]1NC(=O)N[C@H](CO)C(=O)NCCOCCOCC(=O)N[C@@H](CO)C(=O)NNC1=O [Compound 12]
